Assay results as given in US12678446B2 (PFIZER INC., priority 2020, dated 2026).

Tests used:
[1] = test system: RSV (RSV A2 ECACC, 0709161v); test: RSV plaque reduction assay; assay type: cell-based, respiratory syncytial virus; conditions: human respiratory syncytial virus, HepG2, read-out: RSV A2 Plaque EC50, RSV A2 in Hep-G2 cells; mean of at least two experiments unless noted (n = 1)
How it was run: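 Eight-point compound dilutions were premixed with RSV A2 (100 PFU/well) and applied to confluent Hep-G2 cells for 2 h, followed by a 2-day incubation at 37° C. under compound-containing 0.8% CMC overlay. EC50 comes from immunostained plaque counts relative to untreated virus wells, averaged over ≥2 runs.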

cell toxicity CC50 = assay type: cell-based; conditions: human; Hep-G2 cells; mean of at least two experiments; read-out: Cell Cytotoxicity CC50

`O=C(N[C@H]1N=C(c2ccccc2)c2cccc(F)c2NC1=O)c1c(-c2ccc(F)cc2F)nn2c1SCCC2` [Example 34, 2-(2,4-Difluorophenyl)-N-[(3S)-9-fluoro-2-oxo-5-phenyl-2,3-dihydro-1H-1,4-benzodiazepin-3-yl]-5H,6H,7H-pyrazolo[3,2-b][1,3]thiazine-3-carboxamide] showed an EC50 [1] of 143 nM and a CC50 (cell toxicity CC50) of over 25000 nM.

`Cc1cc(-c2nn3c(c2C(=O)N[C@H]2N=C(c4ccccc4)c4cccc(F)c4NC2=O)O[C@H](C)CC3)c(F)cn1` [Example 79, (5R)-2-(5-Fluoro-2-methylpyridin-4-yl)-N-[(3S)-9-fluoro-2-oxo-5-phenyl-1,3-dihydro-1,4-benzodiazepin-3-yl]-5-methyl-6,7-dihydro-5H-pyrazolo[5,1-b][1,3]oxazine-3-carboxamide] showed an EC50 [1] of 115 nM and a CC50 (cell toxicity CC50) of over 25000 nM.

For `CCNc1ccc(-c2nn3c(c2C(=O)N[C@H]2N=C(c4ccccc4)c4cccc(F)c4NC2=O)O[C@H](C)CC3)cn1` [Example 52, (5R)-2-[6-(Ethylamino)-3-pyridyl]-N-[(3S)-9-fluoro-2-oxo-5-phenyl-1,3-dihydro-1,4-benzodiazepin-3-yl]-5-methyl-6,7-dihydro-5H-pyrazolo[5,1-b][1,3]oxazine-3-carboxamide], the EC50 [1] was 28 nM and the CC50 (cell toxicity CC50) was over 25000 nM.

`C[C@@H]1CCn2nc(-c3ccc(CN(C)C)cc3F)c(C(=O)N[C@H]3N=C(c4ccccc4)c4cccc(F)c4NC3=O)c2O1` [Example 170, (5R)-2-[4-[(Dimethylamino)methyl]-2-fluorophenyl]-N-[(3S)-9-fluoro-2-oxo-5-phenyl-1,3-dihydro-1,4-benzodiazepin-3-yl]-5-methyl-6,7-dihydro-5H-pyrazolo[5,1-b][1,3]oxazine-3-carboxamide] showed an EC50 [1] of 60 nM and a CC50 (cell toxicity CC50) of over 25000 nM.

`C[C@@H]1CCn2nc(-c3ccc(S(C)(=O)=O)cc3F)c(C(=O)N[C@H]3N=C(c4ccccc4)c4ccccc4NC3=O)c2O1` [Example 141, (5R)-2-(2-Fluoro-4-methylsulfonylphenyl)-5-methyl-N-[(3S)-2-oxo-5-phenyl-1,3-dihydro-1,4-benzodiazepin-3-yl]-6,7-dihydro-5H-pyrazolo[5,1-b][1,3]oxazine-3-carboxamide] showed an EC50 [1] of 20 nM and a CC50 (cell toxicity CC50) of over 25000 nM.

With `Cc1cccc(F)c1-c1nn2c(c1C(=O)N[C@H]1N=C(c3ccccc3)c3cccc(F)c3NC1=O)OCCC2` [Example 140, 2-(2-Fluoro-6-methylphenyl)-N-[(3S)-9-fluoro-2-oxo-5-phenyl-1,3-dihydro-1,4-benzodiazepin-3-yl]-6,7-dihydro-5H-pyrazolo[5,1-b][1,3]oxazine-3-carboxamide] the EC50 [1] was 38 nM and the CC50 (cell toxicity CC50) was over 25000 nM.

With `Cc1cnc(F)c(-c2nn3c(c2C(=O)N[C@H]2N=C(c4ccccc4)c4ccccc4NC2=O)OCCC3)c1` [Example 42, 2-(2-Fluoro-5-methylpyridin-3-yl)-N-[(3S)-2-oxo-5-phenyl-1,3-dihydro-1,4-benzodiazepin-3-yl]-6,7-dihydro-5H-pyrazolo[5,1-b][1,3]oxazine-3-carboxamide] the EC50 [1] was 124 nM and the CC50 (cell toxicity CC50) was over 25000 nM.

`CC(C)Nc1ccc(-c2nn3c(c2C(=O)N[C@H]2N=C(c4ccccc4)c4cccc(F)c4NC2=O)O[C@@H](C)CC3)cn1` [Example 69] gave an EC50 [1] of 34 nM and a CC50 (cell toxicity CC50) of over 25000 nM.

Compound `CS(=O)(=O)CC1COc2c(C(=O)N[C@H]3N=C(c4ccccc4)c4cccc(F)c4NC3=O)c(-c3ccccc3F)nn2C1` (stereo partly drawn) [Example 184, N-[(3S)-9-fluoro-2-oxo-5-phenyl-1,3-dihydro-1,4-benzodiazepin-3-yl]-2-(2-fluorophenyl)-6-(methylsulfonylmethyl)-6,7-dihydro-5H-pyrazolo[5,1-b][1,3]oxazine-3-carboxamide] has an EC50 [1] of 300 nM and a CC50 (cell toxicity CC50) of over 25000 nM.

`Cc1ccccc1-c1nn2c(c1C(=O)N[C@H]1N=C(c3ccccc3)c3cccc(F)c3NC1=O)OCCC2` [Example 6, N-[(3S)-9-Fluoro-2-oxo-5-phenyl-1,3-dihydro-1,4-benzodiazepin-3-yl]-2-(2-methylphenyl)-6,7-dihydro-5H-pyrazolo[5,1-b][1,3]oxazine-3-carboxamide] showed an EC50 [1] of 165 nM and a CC50 (cell toxicity CC50) of over 25000 nM.

`O=C(N[C@H]1N=C(c2ccccc2)c2cccc(F)c2NC1=O)c1c(-c2ccncc2F)nn2c1OCCC2` [Example 80, N-[(3S)-9-fluoro-2-oxo-5-phenyl-1,3-dihydro-1,4-benzodiazepin-3-yl]-2-(3-fluoropyridin-4-yl)-6,7-dihydro-5H-pyrazolo[5,1-b][1,3]oxazine-3-carboxamide] showed an EC50 [1] of 64 nM and a CC50 (cell toxicity CC50) of over 25000 nM.

With `C[C@@H]1CCn2nc(-c3ccc(N4C[C@@H]5C[C@H]4CO5)nc3F)c(C(=O)N[C@H]3N=C(c4ccccc4)c4cccc(F)c4NC3=O)c2O1` (single isomer, unassigned) [Example 88] the EC50 [1] was 146 nM and the CC50 (cell toxicity CC50) was over 25000 nM.

`CC(C)Nc1ccc(-c2nn3c(c2C(=O)N[C@H]2N=C(c4ccccc4)c4cccc(F)c4NC2=O)O[C@H](C)CC3)cn1` [Example 67, (5R)-N-[(3S)-9-fluoro-2-oxo-5-phenyl-1,3-dihydro-1,4-benzodiazepin-3-yl]-2-[6-(isopropylamino)-3-pyridyl]-5-methyl-6,7-dihydro-5H-pyrazolo[4,1-b][1,3]oxazine-3-carboxamide] showed an EC50 [1] of 19 nM and a CC50 (cell toxicity CC50) of over 25000 nM.

With `CCc1ncc(-c2nn3c(c2C(=O)N[C@H]2N=C(c4ccccc4)c4cccc(F)c4NC2=O)O[C@H](C)CC3)cn1` [Example 60, (5R)-2-(2-Ethylpyrimidin-5-yl)-N-[(3S)-9-fluoro-2-oxo-5-phenyl-1,3-dihydro-1,4-benzodiazepin-3-yl]-5-methyl-6,7-dihydro-5H-pyrazolo[5,1-b][1,3]oxazine-3-carboxamide] the EC50 [1] was 167 nM and the CC50 (cell toxicity CC50) was over 25000 nM.

For `COc1cc(-c2nn3c(c2C(=O)N[C@H]2N=C(c4ccccc4)c4ccccc4NC2=O)O[C@H](C)CC3)ccn1` [Example 49, (5R)-2-(2-Methoxypyridin-4-yl)-5-methyl-N-[(3S)-2-oxo-5-phenyl-1,3-dihydro-1,4-benzodiazepin-3-yl]-6,7-dihydro-5H-pyrazolo[5,1-b][1,3]oxazine-3-carboxamide], the EC50 [1] was 243 nM and the CC50 (cell toxicity CC50) was over 25000 nM.

Compound `O=C(N[C@H]1N=C(c2ccccc2)c2ccccc2NC1=O)c1c(-c2cnn(CC(F)(F)F)c2)nn2c1OCCC2` [Example 151, N-[(3S)-2-oxo-5-phenyl-1,3-dihydro-1,4-benzodiazepin-3-yl]-2-[1-(2,2,2-trifluoroethyl)pyrazol-4-yl]-6,7-dihydro-5H-pyrazolo[5,1-b][1,3]oxazine-3-carboxamide] has an EC50 [1] of 108 nM and a CC50 (cell toxicity CC50) of over 25000 nM.

`C[C@@H]1CCn2nc(Nc3ccccc3)c(C(=O)N[C@H]3N=C(c4ccccc4)c4cccc(F)c4NC3=O)c2O1` [Example 95, (5R)-2-Anilino-5-methyl-N-[(3S)-9-fluoro-2-oxo-5-phenyl-1,3-dihydro-1,4-benzodiazepin-3-yl]-6,7-dihydro-5H-pyrazolo[5,1-b][1,3]oxazine-3-carboxamide] showed an EC50 [1] of 357 nM and a CC50 (cell toxicity CC50) of over 25000 nM.

In the case of `C[C@@H]1CCn2nc(-c3ccsc3)c(C(=O)N[C@H]3N=C(c4ccccc4)c4ccccc4NC3=O)c2O1` [Example 64, (5R)-5-Methyl-N-[(3S)-2-oxo-5-phenyl-1,3-dihydro-1,4-benzodiazepin-3-yl]-2-(3-thienyl)-6,7-dihydro-5H-pyrazolo[5,1-b][1,3]oxazine-3-carboxamide], the EC50 [1] is reported as 133 nM and the CC50 (cell toxicity CC50) is reported as over 25000 nM.

For `C[C@@H]1CCn2nc(Nc3ccc(F)cc3)c(C(=O)N[C@H]3N=C(c4ccccc4)c4cccc(F)c4NC3=O)c2O1` [Example 97, (5R)-2-(4-Fluoroanilino)-N-[(3S)-9-fluoro-2-oxo-5-phenyl-1,3-dihydro-1,4-benzodiazepin-3-yl]-5-methyl-6,7-dihydro-5H-pyrazolo[5,1-b][1,3]oxazine-3-carboxamide], the EC50 [1] was 439 nM and the CC50 (cell toxicity CC50) was over 25000 nM.

For `CN(CC1COc2c(C(=O)N[C@H]3N=C(c4ccccc4)c4cccc(F)c4NC3=O)c(-c3ccccc3F)nn2C1)C1COC1` (stereo partly drawn) [Example 169, N-[(3S)-9-fluoro-2-oxo-5-phenyl-1,3-dihydro-1,4-benzodiazepin-3-yl]-2-(2-fluorophenyl)-6-[[methyl(oxetan-3-yl)amino]methyl]-6,7-dihydro-5H-pyrazolo[5,1-b][1,3]oxazine-3-carboxamide], the EC50 [1] was 114 nM and the CC50 (cell toxicity CC50) was over 25000 nM.

Compound `O=C(N[C@H]1N=C(c2ccccc2)c2cccc(F)c2NC1=O)c1c(-c2cccnc2)nn2c1OCCC2` [Example 17, N-[(3S)-9-Fluoro-2-oxo-5-phenyl-1,3-dihydro-1,4-benzodiazepin-3-yl]-2-pyridin-3-yl-6,7-dihydro-5H-pyrazolo[5,1-b][1,3]oxazine-3-carboxamide] has an EC50 [1] of 180 nM and a CC50 (cell toxicity CC50) of over 25000 nM.

In the case of `O=C(N[C@H]1N=C(c2ccccc2)c2ccccc2NC1=O)c1c(-c2cccnc2)nn2c1OCCC2` [Example 16, N-[(3S)-2-Oxo-5-phenyl-1,3-dihydro-1,4-benzodiazepin-3-yl]-2-pyridin-3-yl-6,7-dihydro-H-pyrazolo[5,1-b][1,3]oxazine-3-carboxamide], the EC50 [1] is reported as 454 nM and the CC50 (cell toxicity CC50) is reported as over 25000 nM.

`C[C@@H]1CCn2nc(-c3cnn(C)c3)c(C(=O)N[C@H]3N=C(c4ccccc4)c4cccc(F)c4NC3=O)c2O1` [Example 98, (5R)-N-[(3S)-9-fluoro-2-oxo-5-phenyl-1,3-dihydro-1,4-benzodiazepin-3-yl]-5-methyl-2-(1-methylpyrazol-4-yl)-6,7-dihydro-5H-pyrazolo[5,1-b][1,3]oxazine-3-carboxamide] showed an EC50 [1] of 80 nM and a CC50 (cell toxicity CC50) of over 25000 nM.

Compound `O=C(N[C@H]1N=C(c2ccccc2)c2ccccc2NC1=O)c1c(-c2ccc(F)cc2F)nn2c1OCCC2` [Example 1, 2-(2,4-Difluorophenyl)-N-[(3S)-2-oxo-5-phenyl-1,3-dihydro-1,4-benzodiazepin-3-yl]-6,7-dihydro-5H-pyrazolo[5,1-b][1,3]oxazine-3-carboxamide] has an EC50 [1] of 33 nM and a CC50 (cell toxicity CC50) of over 25000 nM.
